The text below walks through data of US20240417400A1, “ARYL HYDROCARBON RECEPTOR (AHR) MODULATORS AND THERAPEUTIC USES THEREOF” (GALILEO BIOSYSTEMS, INC., priority 2021, published 2024).

Assay type in all cases: cell-based
For data set [1], the system named is human keratinocytes. The data set is described as follows: Inflammation of human keratinocytes induced by IL-4, IL-13, IL-22 and IFN-γ: CCL2 release and cell viability. Conditions: IL-4, IL-13, IL-22 and IFN-γ induced, FIGS. 3A, 3B. From the text: Inflammation of human keratinocytes was induced by IL-4, IL-13, IL-22 and IFN-γ. The cells were exposed to Compound 6 or tapiranof and measured for inhibition of CCL2 release and cell viability. FIG. 3A depicts concentration response curves of inhibition of CCL2 release and cell viability for Compound 6. FIG. 3B depicts concentration response curves of inhibition of CCL2 release and cell viability for tapiranof.

Data set [2] relates to human keratinocytes. The data set is described as follows: Inflammation of human keratinocytes induced by IL-17 and IFN-α: IL-8 release and cell viability. Conditions: IL-17 and IFN-α induced, FIGS. 4A, 4B. The source says: The cells were exposed to Compound 6 or tapiranof and measured for inhibition of IL-8 release and cell viability. FIG. 4A depicts concentration response curves of inhibition of IL-8 release and cell viability for Compound 6. FIG. 4B depicts concentration response curves of inhibition of IL-8 release and cell viability for tapiranof.

The test system of data set [3] is gene expression biomarkers (CYP1A1, CCL17/TARC, CCL26/Eotaxin-3, Filaggrin) in freshly excised healthy human skin. The data set is described as follows: Gene expression biomarker activity screen in stimulated human skin explants (RT-qPCR). Conditions: 10 μM in media, harvested 24 hours post stimulation. Here is the method:
Compound 6 and comparative compound tapinarof are evaluated for their ability to inhibit production of gene expression biomarkers using the biomarkers panel described in the below tables. Each compound is dissolved in DMSO at a dilution volume of 1000× and the resultant solutions are stored at −80° C. Concentrations tested include 1 μM, 5 μM, 10 μM, and 25 μM. Freshly excised healthy human skin is dermatomed to an approximate thickness of 750±100 μm using an Integra® dermatome according to US-SOP-3005 and US-SOP-3006. The dermatomed skin is sectioned into 7 mm biopsies and placed into 6.5 mm permeable membrane Transwell@ inserts with the Stratum corneum side apical and a section of collagen between the basal dermal tissue and the permeable membrane (n=4 per test sample). The Transwell® inserts have an average surface area of approximately 0.33 cm^2 and a volume of 0.5 mL. The basal chambers of the inserts are filled with 0.5 mL of Cornification media and the compound solutions are added to the media to a concentration of 10 μM. The inserts are stored in a humidified incubator overnight at 37° C. for approximately 16 hours. The contents of the basal chambers are vacuum aspirated and replaced with 0.5 mL of pre-warmed (ca. 37° C.) Cornification media containing the compound at a concentration of 10 μM and stimulation cocktail. Tissue explants are harvested at 24 hours post stimulation to measure production of the gene expression biomarkers by quantitative reverse transcription polymerase chain reaction (RT-qPCR). […] The test samples include untreated vehicle (control), TH1 stimulation control, TH2 stimulation control, TH17 stimulation control, tapinarof, and Compound 6.

In data set [4] the test system is T-cells. The data set is described as follows: Inflammation of T-cells induced by CD2, CD3 and CD28: IL-2 and IL-4 release. The note with it: at the highest test concentrations, FIGS. 5A, 5B. The source says: Inflammation of T-cells were induced by CD2, CD3, and CD28. The cells were exposed to Compound 6 or tapiranof and measured for inhibition of IL-2 and IL-4 release and cell viability. FIG. 5A depicts concentration response curves of inhibition of IL-2 and IL-4 release and cell viability for Compound 6. FIG. 5B depicts concentration response curves of inhibition of IL-2 and IL-4 release and cell viability for tapiranof.

Turning to `O=c1c2ccccc2nc2n1CCc1c-2[nH]c2ccccc12` [Compound 6], in data set [1], the cell viability result is on record as “did not affect cell viability” and the “inhibition of CCL2 release” value is reported as “inhibited release of CCL2”. The “inhibition of IL-8 release” value in data set [2] is “inhibited release of IL-8”. Also, the “production of CYP1A1 (gene expression)” value in data set [3] (FIG. 1A) is recorded as “significant induction”. The “production of CCL17/TARC (gene expression)” value in data set [3] (FIG. 1B) was “reduction/inhibition”. Besides, the “production of CCL26/Eotaxin-3 (gene expression)” value in data set [3] (FIG. 1C) is listed as “reduction/inhibition”. Further, the “production of Filaggrin (gene expression)” value in data set [3] (FIG. 1D) is on record as “significant induction”. Besides, in data set [4], the “inhibition of IL-2 release” value is “inhibited release of IL-2” and the “inhibition of IL-4 release” value is “inhibited”.
As to `CC(C)c1c(O)cc(/C=C/c2ccccc2)cc1O` [tapiranof, tapinarof, reference compound], in data set [1], the cell viability entry is reported as “inhibition of cell viability at higher concentrations” and the “inhibition of CCL2 release” value was “inhibited release of CCL2”. In data set [2], the “inhibition of IL-8 release” value is recorded as “inhibited release of IL-8”. Moreover, in data set [4], the “inhibition of IL-2 release” value is given as “inhibited release of IL-2” and the “inhibition of IL-4 release” value was “inhibited”.
